# According to paper PMC11145868, “Protein target similarity is positive predictor of in vitro antipathogenic activity: a drug repurposing strategy for Plasmodium falciparum” (Journal of Cheminformatics, 2024):
# Where a name gives a salt, the structure may show the parent alone. Read-outs that look alike come from different tables or passages of the source.
# Experiments:
# [1] = Mammalian cell cytotoxicity assay, HEK293T (CellTiter-Glo, 72 h); conditions: human, HEK293T cells
# P. falciparum Dd2-HLH [2] = assay: microbe, parasite or virus in culture; assay type: cell-based, Plasmodium falciparum; conditions: Plasmodium falciparum, DD2, 72 h, read-out: Blood stage 72h EC50
# [3] = Mammalian cell cytotoxicity assay, HepG2 (CellTiter-Glo, 72 h); conditions: human, HepG2 cells
# [4] = system: P. berghei-luciferase sporozoites; assay: microbe, parasite or virus in culture; assay type: cell-based, Plasmodium berghei; conditions: Plasmodium berghei, liver-stage parasites
# P. falciparum Dd2-HLH [5] = assay: microbe, parasite or virus in culture; assay type: cell-based, Plasmodium falciparum; conditions: Plasmodium falciparum
# [6] = HepG2, 48 hours in culture, read-out: Liver stage 48h EC50
# [7] = DD2, 48 h, read-out: Blood stage 48h EC50
# [8] = DD2, Hec50, 48 h, read-out: Blood stage 48 h EC50
# [9] = 48 h in culture, read-out: Liver 48 h EC50
# [10] = DD2, read-out: EC50 (antiplasmodial, quoted in discussion from Supplementary Table 1)
SMILES,CC50 at 72 h [1] [nM],EC50 (P. falciparum Dd2-HLH [2]) [nM],CC50 at 72 h [3] [nM],"EC50 [4, 6] [nM]",EC50 (P. falciparum Dd2-HLH [5]; [7]) [nM],EC50 (P. falciparum Dd2-HLH [5]; [8]) [nM],"EC50 [4, 9] [nM]",EC50 (P. falciparum Dd2-HLH [5]; [10]) [nM]
CCN(CC)CC[n+]1ccc2c(C)c3[nH]c4ccc(O)cc4c3c(C)c2c1 [Datelliptium Chloride],4690,193,505,> 10000,,,,
"COc1ccc(-c2nc(N3CCOCC3)c3sc(CN(C)c4ncc(C(=O)NO)cn4)cc3n2)cn1 [CUDC-907, reference compound]",27,18,3,,8,7.5,39,
COc1cccc2c1C(=O)c1c(O)c3c(c(O)c1C2=O)C[C@@](O)(C(=O)CO)C[C@@H]3O[C@H]1C[C@H](N)[C@H](O)[C@H](C)O1 [Doxorubicin],74,250,44,1720,65,,,
C/C(=C\c1csc(C)n1)[C@@H]1C[C@@H]2O[C@]2(C)CCC[C@H](C)[C@H](O)[C@@H](C)C(=O)C(C)(C)[C@@H](O)CC(=O)N1 [Ixabepilone],15,,7,867,42,,,
CN(C)Cc1c(C(=O)NCCOc2ccc(C(=O)NO)cc2)oc2ccccc12 [Abexinostat],376,91,,1190,51,,,
CCOc1cc2ncc(C#N)c(Nc3ccc(OCc4cccc(F)c4)c(Cl)c3)c2cc1NC(=O)/C=C/CN(C)C [HKI-357],1720,619,,573,212,,,
COc1cc2c(Oc3ccc(NC(=O)C4(C(=O)Nc5ccc(F)cc5)CC4)cc3F)ccnc2cc1OCCCN1CCOCC1 [Foretinib],2370,859,,6050,139,,,
CCNC(=O)c1noc(-c2cc(C(C)C)c(O)cc2O)c1-c1ccc(CN2CCOCC2)cc1 [Luminespib],11,40,,29,38,,,
Cc1c(-c2ccc(O)cc2)n(Cc2ccc(OCCN3CCCCCC3)cc2)c2ccc(O)cc12 [Bazedoxifene Acetate],3040,636,,5560,192,,,
FC(F)c1nc2ccccc2n1-c1nc(N2CCOCC2)nc(N2CCOCC2)n1 [ZSTK-474],762,841,,973,238,,,
CC(C)C[C@H](NC(=O)[C@H](Cc1ccccc1)NC(=O)c1cnccn1)B(O)O [Bortezomib],25,82,,12,91,,,
OC1(c2ccc(Cl)c(C(F)(F)F)c2)CCN(CCCC(c2ccc(F)cc2)c2ccc(F)cc2)CC1 [Penfluridol],1900,524,,3170,218,,,
CC(C)C(=O)OCC(=O)[C@@]12O[C@H](C3CCCCC3)O[C@@H]1C[C@H]1[C@@H]3CCC4=CC(=O)C=C[C@]4(C)[C@H]3[C@@H](O)C[C@@]12C [Ciclesonide],,661,> 9950,3330,199,,,
CN1CCN(C2CCN(C(=O)Nc3cc(Oc4ccc(NC(=O)C5(C(=O)Nc6ccc(F)cc6)CC5)c(F)c4)ccn3)CC2)CC1 [Golvatinib],4360,1020,,2840,738,,,
CCc1cc2c(cc1CC)CC(NC[C@H](O)c1ccc(O)c3[nH]c(=O)ccc13)C2 [Indacaterol maleate],> 9950,951,,3110,682,,,
CC(=O)Nc1cccc(-n2c(=O)n(C3CC3)c(=O)c3c(Nc4ccc(I)cc4F)n(C)c(=O)c(C)c32)c1 [Trametinib dimethyl sulfoxide],> 9950,300,119,,160,,,

SMILES,CC50 at 72 h [1] [nM],EC50 (P. falciparum Dd2-HLH [2]) [nM],CC50 at 72 h [3] [nM],"EC50 [4, 6] [nM]",EC50 (P. falciparum Dd2-HLH [5]; [7]) [nM],EC50 (P. falciparum Dd2-HLH [5]; [8]) [nM],"EC50 [4, 9] [nM]",EC50 (P. falciparum Dd2-HLH [5]; [10]) [nM]
CCCCN(CCCC)CCC(O)c1cc2c(Cl)cc(Cl)cc2c2cc(C(F)(F)F)ccc12 (centres unmarked) [Halofantrine HCl],> 9950,1,> 9950,1880,,,,
O=C(NC1CCN(CCCCC2(C(=O)NCC(F)(F)F)c3ccccc3-c3ccccc32)CC1)c1ccccc1-c1ccc(C(F)(F)F)cc1 [Lomitapide],791,820,,2250,277,,,
"CCOC(=O)[C@H]1O[C@@H]1C(=O)N[C@@H](CC(C)C)C(=O)NCCC(C)C [aloxistatin, reference compound]",> 9950,69,,> 10000,,,,31
Cc1cc(Nc2nc(C(O)c3ccc(F)cc3)nc3ccccc23)n[nH]1 (centres unmarked) [AC-430],> 9950,924,,4210,1200,,,
OC(CCN1CCCC1)(c1ccccc1)C1CCCCC1 (centres unmarked) [Procyclidine hydrochloride],> 9950,437,,> 10000,594,,,
"Cn1cc(CNCC2CCN(c3ncc(C(=O)NO)cn3)CC2)c2ccccc21 [Quisinostat, reference compound]",33,3,,,,1,8,
COc1cc2ncnc(Nc3ccc(F)c(Cl)c3)c2cc1NC(=O)/C=C/CN1CCCCC1 [Dacomitinib],2620,953,,596,540,,,
CCN(CC)CCN(Cc1ccc(-c2ccc(C(F)(F)F)cc2)cc1)C(=O)Cn1c(SCc2ccc(F)cc2)nc(=O)c2c1CCC2 [Darapladib],1730,850,,2880,515,,,
CC(C)n1nc(-c2ccc3oc(N)nc3c2)c2c(N)ncnc21 [Sapanisertib],102,305,,665,187,,,
CN(NC(=O)CC(=O)NN(C)C(=S)c1ccccc1)C(=S)c1ccccc1 [Elesclomol],169,437,,> 10000,196,,,
CC[C@H](C(=O)N1CCCC[C@H]1C(=O)O[C@H](CCc1ccc(OC)c(OC)c1)c1cccc(OCC(=O)NCCNC(=O)COc2cccc([C@@H](CCc3ccc(OC)c(OC)c3)OC(=O)[C@@H]3CCCCN3C(=O)[C@@H](CC)c3cc(OC)c(OC)c(OC)c3)c2)c1)c1cc(OC)c(OC)c(OC)c1 [Rimiducid],> 9950,411,,> 10000,59,,,
c1cc(-c2nc3ccc(-c4ccc5nc(-c6ccncc6)[nH]c5c4)cc3[nH]2)ccn1 [Ridinilazole],> 9950,90,3110,215,,,,
C=C[C@H]1C[N@@]2CC[C@H]1C[C@@H]2[C@@H](O)c1ccnc2ccc(OC)cc12 [Quinidine],> 9950,84,,> 10000,41,,,
O=C(CCCCCCNC(=O)c1cnc(N(c2ccccc2)c2ccccc2)nc1)NO [Ricolinostat],> 9950,770,,4370,555,,,
"COc1ncc(-c2ccc3nccc(-c4ccnnc4)c3c2)cc1NS(=O)(=O)c1ccc(F)cc1F [omipalisib, reference compound]",46,158,,230,,,,159
O=C1c2c(O)ccc(O)c2C(=O)c2c(NCCNCCO)ccc(NCCNCCO)c21 [Mitoxantrone],217,357,,1720,239,,,
